Numbered stars: 1 amine (or outer) side, 2 acyl side, 3 side chain; on linkers, the order of the positions; unused ones are H or OH. Square brackets hold non-standard residues; d marks the D form. Peptide text beside a SMILES is read from it. ξ: configuration not given here. X1 = CN(C(Cc1cn(Cc2ccc(Br)cc2)c2ccccc12)C(=O)[*:2])[*:1]; ξAla(CF3) = NC(CC(F)(F)F)C(=O)O; X2 = N#CCCC(O[*:1])C(=O)[*:2]; NMeL = CN[CH](CC(C)C)C(=O)O; NMeA = CN[CH](C)C(=O)O
Test system: SARS-CoV-2 spike protein
Type: cell-based

## CC(C)CC1NC(=O)C(Cc2cn(Cc3ccc(Br)cc3)c3ccccc23)N(C)C(=O)C(CC(F)(F)F)NC(=O)C(CC(C)C)N(C)C(=O)C(CC(F)(F)F)NC(=O)C(CCC#N)OC(=O)C(C)N(C)C1=O (stereo not shown) [KZR-8445] (cyclo([X1]L[NMeA][X2][ξAla(CF3)][NMeL][ξAla(CF3)]); configuration not given here)
  biogenesis of the Spike protein: inhibits
